This is an account of results in patent US11590116B2 (THERAVANCE BIOPHARMA R&D IP, LLC, priority 2019, dated 2023).

For test [1], the system named is TGF-β-stimulated SMAD3 phosphorylation in BEAS-2B cells. The test is described as follows: Cellular ALK5 potency assay, inhibition of TGF-β stimulated pSMAD3 formation in BEAS-2B cells. The class given is cell-based. As to conditions: Homo sapiens; inhibition of TGF-β stimulated pSMAD3 formation, BEAS-2B cells; read-out: BEAS2B pIC50 (converted). In short, it runs like this:
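pSMAD3 was quantified by AlphaLISA in BEAS-2B lysates after 10 ng/mL TGF-β (final) for 30 min. Before stimulation, cells received compound for 1 h at 37° C in supplemented HBSS. Values are pIC50, relative to TGF-β-stimulated cells without compound.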

Test [2] has as its target T1, recombinant human ALK5 (TGF-βR1) protein (Homo sapiens, UniProt P36897).
T1 construct: purchased Life Technologies PR9075A
T1 sequence (P36897 34-503): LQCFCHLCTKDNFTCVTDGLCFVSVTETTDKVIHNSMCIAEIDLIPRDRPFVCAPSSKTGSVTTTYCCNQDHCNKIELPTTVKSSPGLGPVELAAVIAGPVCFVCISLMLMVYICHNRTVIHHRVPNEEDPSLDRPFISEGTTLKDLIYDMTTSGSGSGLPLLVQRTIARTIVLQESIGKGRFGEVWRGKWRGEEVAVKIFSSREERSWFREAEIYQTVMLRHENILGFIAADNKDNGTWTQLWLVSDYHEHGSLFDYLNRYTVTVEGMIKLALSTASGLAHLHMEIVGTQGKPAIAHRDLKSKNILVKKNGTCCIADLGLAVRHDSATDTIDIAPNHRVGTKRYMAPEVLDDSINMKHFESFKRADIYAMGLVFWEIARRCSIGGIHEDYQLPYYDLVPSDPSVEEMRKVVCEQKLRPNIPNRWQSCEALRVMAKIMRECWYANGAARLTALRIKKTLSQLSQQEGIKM
As to the kind of experiment: Biochemical ALK5 (TGF-βR1) assay to measure pKi (LANCE Ultra ULight kinase assay). As to conditions: apparent pKi from pIC50 by Cheng-Prusoff, read-out: ALK5 pKi (converted). In short, it runs like this:
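After a 60 min room-temperature preincubation of ALK5 with compound, phosphorylation proceeds 60 min at 37 °C on ATP addition (125 μM as 5× stock). Detection: Eu-labelled phospho-Thr1342 Topo IIα antibody in EDTA buffer, pH 7.0; emission 665 nm.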

Regarding `Cc1cccc(-c2n[nH]cc2-c2ccc3ncc(N4CC[C@H](N(C)C)C4)cc3c2)n1` (racemic) [Compound 70, rac-(3S)-N,N-dimethyl-1-[6-[3-(6-methyl-2-pyridyl)-1H-pyrazol-4-yl]-3-quinolyl]pyrrolidin-3-amine], the IC50 in test [1] is 25.1 to 158 nM. For the same molecule, the Ki in test [2] was below 0.0316 nM.

For the molecule `Cc1cccc(-c2[nH]cnc2-c2ccc3ncc(C4=CCC(NC(C)C)CC4)cc3c2)n1` (stereo not shown) [Compound 540, N-isopropyl-4-[6-[5-(6-methyl-2-pyridyl)-1H-imidazol-4-yl]-3-quinolyl]cyclohex-3-en-1-amine], the IC50 in test [1] was 25.1 to 158 nM. Also, the Ki in test [2] was below 0.0316 nM.

As to `Cc1cccc(-c2nnn(Cc3ccccc3)c2-c2ccc3ncc(N4CCNCC4)cc3c2)n1` [Compound 382, 6-[3-benzyl-5-(6-methyl-2-pyridyl)triazol-4-yl]-3-piperazin-1-yl-quinoline], in test [1], the IC50 is 25.1 to 158 nM. The Ki in test [2] was 0.0398 to 0.316 nM.

With `Cc1nc(-c2n[nH]cc2-c2ccc3ncc(-c4nc(C)c(CCN)[nH]4)cc3n2)ccc1F` [Compound 483, 2-[2-[6-[3-(5-fluoro-6-methyl-2-pyridyl)-1H-pyrazol-4-yl]-1,5-naphthyridin-3-yl]-4-methyl-1H-imidazol-5-yl]ethanamine], the IC50 in test [1] was 200 to 1260 nM. In test [2], the Ki is 0.0398 to 0.316 nM.

On to `COc1[nH]nc(-c2cccc(C)n2)c1-c1ccc2ncc(N3CCC(N4CCN(C)CC4)CC3)cc2n1` [Compound 112, 2-[5-methoxy-3-(6-methyl-2-pyridyl)-1H-pyrazol-4-yl]-7-[4-(4-methylpiperazin-1-yl)-1-piperidyl]-1,5-naphthyridine], for which, in test [1], the IC50 is 200 to 1260 nM. In addition, the Ki in test [2] was 0.0398 to 0.316 nM.

With `Cc1cccc(-c2nc3ccccn3c2-c2ccc3ncc(Br)cc3n2)n1` [Compound 657, 7-bromo-2-[2-(6-methyl-2-pyridyl)imidazo[1,2-a]pyridin-3-yl]-1,5-naphthyridine], the IC50 in test [1] is 25.1 to 158 nM. The Ki in test [2] is 0.0398 to 0.316 nM.

Take `Cc1cccc(-c2n[nH]cc2-c2ccc3nc(C4CCCN4)c(-c4cn[nH]c4)cc3c2)n1` (stereo not shown) [Compound 291, 6-[3-(6-methyl-2-pyridyl)-1H-pyrazol-4-yl]-3-(1H-pyrazol-4-yl)-2-pyrrolidin-2-yl-quinoline]: the IC50 in test [1] was 1580 to 10000 nM. Moreover, in test [2], the Ki is 3.98 to 31.6 nM.

Turning to `COC(=O)c1coc(-c2ccnc3ccc(-c4c[nH]nc4-c4cccc(C)n4)nc23)n1` [Compound 817, methyl 2-[6-[3-(6-methyl-2-pyridyl)-1H-pyrazol-4-yl]-1,5-naphthyridin-4-yl]oxazole-4-carboxylate], the IC50 in test [1] is 200 to 1260 nM. The Ki in test [2] is 0.398 to 3.16 nM.

With `Cc1cccc(-c2[nH]cnc2-c2ccc3ncc(-c4ccc(C(=O)OC[C@@H]5CCCCN5)cn4)cc3c2)n1` [Compound 1165, [(2S)-2-piperidyl]methyl 6-[6-[5-(6-methyl-2-pyridyl)-1H-imidazol-4-yl]-3-quinolyl]pyridine-3-carboxylate], the IC50 in test [1] is 25.1 to 158 nM. The Ki in test [2] was 0.0398 to 0.316 nM.

With `Cc1cccc(-c2[nH]cnc2-c2ccc3ncc(-c4ncc(C5=CCNC5)s4)cc3c2)n1` [Compound 1118, 5-(2,5-dihydro-1H-pyrrol-3-yl)-2-[6-[5-(6-methyl-2-pyridyl)-1H-imidazol-4-yl]-3-quinolyl]thiazole], in test [1], the IC50 is below 20 nM. For the same molecule, in test [2], the Ki was 0.0398 to 0.316 nM.

On to `Cc1cccc(-c2n[nH]cc2-c2ccc3ncc(Br)cc3n2)n1` [Compound 323, 7-bromo-2-[3-(6-methyl-2-pyridyl)-1H-pyrazol-4-yl]-1,5-naphthyridine], for which the IC50 in test [1] is below 20 nM. Also, the Ki in test [2] was 0.0398 to 0.316 nM.

For the molecule `CNC(=O)c1ccnc2ccc(-c3c[nH]nc3-c3cccc(C)n3)nc12` [Compound 818, N-methyl-6-[5-(6-methyl-2-pyridyl)-1H-pyrazol-4-yl]-1,5-naphthyridine-4-carboxamide], in test [1], the IC50 was 25.1 to 158 nM. Moreover, in test [2], the Ki is 0.0398 to 0.316 nM.

In the case of `Cc1nc(-c2n[nH]cc2-c2ccc3ncc(-c4cnn(C[C@H]5CC[C@H](N)CC5)c4)cc3n2)ccc1F` [Compound 551, 4-[[4-[6-[3-(5-fluoro-6-methyl-2-pyridyl)-1H-pyrazol-4-yl]-1,5-naphthyridin-3-yl]pyrazol-1-yl]methyl]cyclohexanamine], the IC50 in test [1] was 25.1 to 158 nM. Also, the Ki in test [2] was below 0.0316 nM.

As for `Cc1cccc(-c2[nH]cnc2-c2ccc3ncc(-c4nc(C5=CCNC5)cs4)cc3c2)n1` [Compound 1043, 4-(2,5-dihydro-1H-pyrrol-3-yl)-2-[6-[5-(6-methyl-2-pyridyl)-1H-imidazol-4-yl]-3-quinolyl]thiazole], the IC50 in test [1] was below 20 nM. The Ki in test [2] was 0.0398 to 0.316 nM.

Take `CNCCn1cc(-c2cnc3ccc(-c4c[nH]nc4-c4cccc(C)n4)nc3c2)nn1` [Compound 554, N-methyl-2-[4-[6-[3-(6-methyl-2-pyridyl)-1H-pyrazol-4-yl]-1,5-naphthyridin-3-yl]triazol-1-yl]ethanamine]: the IC50 in test [1] is 25.1 to 158 nM. For the same molecule, the Ki in test [2] is below 0.0316 nM.

With `Cc1cccc(-c2[nH]cnc2-c2ccc3ncc(C(=O)OCC45CCC(CC4)N5)cc3c2)n1` [Compound 780, 7-azabicyclo[2.2.1]heptan-1-ylmethyl 6-[5-(6-methyl-2-pyridyl)-1H-imidazol-4-yl]quinoline-3-carboxylate], the IC50 in test [1] is 25.1 to 158 nM. Also, the Ki in test [2] was 0.398 to 3.16 nM.

Consider `Cc1cccc(-c2[nH]cnc2-c2ccc3ncc(NCCN4CC5(CCCNC5)C4)cc3c2)n1` [Compound 733, N-[2-(2,8-diazaspiro[3.5]nonan-2-yl)ethyl]-6-[5-(6-methyl-2-pyridyl)-1H-imidazol-4-yl]quinolin-3-amine], for which the IC50 in test [1] was 200 to 1260 nM. Moreover, the Ki in test [2] is 0.0398 to 0.316 nM.

On to `CN[C@H]1CC[C@@H](OC(=O)c2cnc3ccc(-c4nc[nH]c4-c4cccc(C)n4)cc3c2)CC1` [Compound 1071, [4-(methylamino)cyclohexyl] 6-[5-(6-methyl-2-pyridyl)-1H-imidazol-4-yl]quinoline-3-carboxylate], for which the IC50 in test [1] was 25.1 to 158 nM. Also, in test [2], the Ki is 0.398 to 3.16 nM.

In the case of `Cc1cccc(-c2[nH]cnc2-c2ccc3ncc(Nc4ccc(N5CCN(C(C)C)CC5)cn4)cc3n2)n1` [Compound 695, N-[5-(4-isopropylpiperazin-1-yl)-2-pyridyl]-6-[5-(6-methyl-2-pyridyl)-1H-imidazol-4-yl]-1,5-naphthyridin-3-amine], in test [1], the IC50 is 25.1 to 158 nM. Also, the Ki in test [2] was 0.0398 to 0.316 nM.

On to `Cc1cccc(-c2[nH]cnc2-c2ccc3ncc(-c4nc(C5=CCNCC5)cs4)cc3c2)n1` [Compound 1051, 2-(6-(5-(6-methylpyridin-2-yl)-1H-imidazol-4-yl)quinolin-3-yl)-4-(1,2,3,6-tetrahydropyridin-4-yl)thiazole], for which the IC50 in test [1] was below 20 nM. Besides, the Ki in test [2] was 0.0398 to 0.316 nM.

`Cc1cccc(-c2[nH]cnc2-c2ccc3ncc(-c4csc(C(=O)OC[C@@H]5CCC[C@@H](N)C5)c4)cc3c2)n1` (racemic) [Compound 1215, [rac-(1R,3R)-3-aminocyclohexyl]methyl 4-[6-[5-(6-methyl-2-pyridyl)-1H-imidazol-4-yl]-3-quinolyl]thiophene-2-carboxylate]: the IC50 in test [1] was 25.1 to 158 nM. The Ki in test [2] was below 0.0316 nM.

With `Cc1cccc(-c2[nH]cnc2-c2ccc3ncc(-c4ccc(C(=O)O[C@@H]5CCNC5)cc4)cc3c2)n1` [Compound 716, [(3R)-pyrrolidin-3-yl] 4-[6-[5-(6-methyl-2-pyridyl)-1H-imidazol-4-yl]-3-quinolyl]benzoate], the IC50 in test [1] was 25.1 to 158 nM. Moreover, the Ki in test [2] is 0.0398 to 0.316 nM.

On to `CC(=O)Oc1cnc2ccc(-c3cn[nH]c3-c3cccc(C)n3)cc2c1` [Compound 731, [6-[5-(6-methyl-2-pyridyl)-1H-pyrazol-4-yl]-3-quinolyl]acetate], for which the IC50 in test [1] was below 20 nM. For the same molecule, in test [2], the Ki is 0.0398 to 0.316 nM.

For `Cc1cccc(-c2[nH]cnc2-c2ccc3nccc(C(=O)OCC4CNC4)c3c2)n1` [Compound 1038, azetidin-3-ylmethyl 6-[5-(6-methyl-2-pyridyl)-1H-imidazol-4-yl]quinoline-4-carboxylate], in test [1], the IC50 was 25.1 to 158 nM. Further, in test [2], the Ki was 0.398 to 3.16 nM.

For the molecule `Cc1cccc(-c2[nH]cnc2-c2ccc3ncc(-c4cccc(NC5CCNCC5)c4)cc3c2)n1` [Compound 686, N-[3-[6-[5-(6-methyl-2-pyridyl)-1H-imidazol-4-yl]-3-quinolyl]phenyl]piperidin-4-amine], in test [1], the IC50 was 25.1 to 158 nM. In test [2], the Ki is below 0.0316 nM.

On to `Cc1cccc(-c2[nH]cnc2-c2ccc3ncc(N4CCN[C@H](C(=O)O)C4)cc3c2)n1` [Compound 682, (2S)-4-[6-[5-(6-methyl-2-pyridyl)-1H-imidazol-4-yl]-3-quinolyl]piperazine-2-carboxylic acid], for which, in test [1], the IC50 is 200 to 1260 nM. Also, the Ki in test [2] was 0.398 to 3.16 nM.
